Laboratory results taken from ChEMBL document CHEMBL3526103, “Prediction of in vivo hepatic clearance and half-life of drug candidates in human using chimeric mice with humanized liver” (Drug Metab Dispos, 2012).

Legend:
[1] = Unbound fraction in iv dosed human plasma; format: ADME, organism-based
[2] = Intrinsic clearance in human hepatocytes from chimeric mouse with humanized liver assessed per 10^6 cells at 10 uM after 0.25 to 2 hrs by LC-MS/MS method; format: ADME, cell-based, Hepatocyte; conditions: read-out: CLH
clinical = conditions: human, in vivo, iv
Description: Total clearance in iv dosed human

[3] = Total clearance in chimeric mouse with humanized liver at 0.3 mg/kg, iv by LC-MS/MS method; format: ADME, organism-based; set-up: dose 0.3 mg/kg, route intravenous; conditions: in vivo
[4] = Total clearance in chimeric mouse with humanized liver at 3 mg/kg, iv by LC-MS/MS method; format: ADME, organism-based; set-up: dose 3 mg/kg, route intravenous; conditions: in vivo
in vivo = conditions: mouse, iv, 3 mg/kg
[5] = Unbound fraction in po dosed human plasma; format: ADME, organism-based
[6] = Oral clearance in po dosed human; format: ADME, organism-based; conditions: in vivo
[7] = Ratio of drug level in blood to plasma in po dosed human; format: ADME, organism-based; conditions: blood and plasma, read-out: Rblood_plasma

Structure (SMILES)	fraction unbound [1]	hepatocyte CLint at 10 µM [2]	clearance (clinical)	clearance [3]	clearance [4]	half-life (in vivo)	fraction unbound [5]	CL/F [6]	blood plasma ratio [7]
CC(=O)C[C@@H](c1ccccc1)c1c(O)c2ccccc2oc1=O	0.015	1.2 µL/min/1e6 cells	0.055 mL/min/kg	0.2 mL/min/kg					
O=C(O)Cc1ccccc1Nc1c(Cl)cccc1Cl [DICLOFENAC]		24.7 µL/min/1e6 cells			16.4 mL/min/kg	36 min			
CCN(C(C)=O)c1cccc(-c2ccnc3c(C#N)cnn23)c1 [ZALEPLON]		2.3 µL/min/1e6 cells			48.1 mL/min/kg				
Nc1nnc(-c2cccc(Cl)c2Cl)c(N)n1 [LAMOTRIGINE]		1.4 µL/min/1e6 cells			1.4 mL/min/kg	606 min	0.45	0.3 mL/min/kg	1
O=S(=O)(c1cccc2cnccc12)N1CCCNCC1 [FASUDIL]	0.51								
CC(C)(C)NCC(O)c1ccc(O)c(CO)c1 (stereo not drawn) [ALBUTEROL]	0.925								
Nc1ncc2ncn(CCC(CO)CO)c2n1 [6-DEOXY PENCICLOVIR]		5.3 µL/min/1e6 cells			71.2 mL/min/kg	6 min	1	118 mL/min/kg	1.2
Nc1ccc(S(=O)(=O)c2ccc(N)cc2)cc1 [DAPSONE]		2.3 µL/min/1e6 cells			2.1 mL/min/kg				
CC1=C(CC(=O)O)c2cc(F)ccc2/C1=C\c1ccc([S+](C)[O-])cc1 (stereo not drawn)		2 µL/min/1e6 cells			5.6 mL/min/kg	72 min	0.069	3.3 mL/min/kg	1
CN1CCN2c3ncccc3Cc3ccccc3C2C1 (stereo not drawn) [MIRTAZAPINE]		6.3 µL/min/1e6 cells			30.4 mL/min/kg				
